Reference: ChEMBL document CHEMBL4118232, “Design, synthesis and biological evaluation of pyrimidine derivatives as novel CDK2 inhibitors that induce apoptosis and cell cycle arrest in breast cancer cells” (Bioorg Med Chem, 2018)
Values belong to the compound of their own block, whether it stands above or below them. Active and inactive are the calls of the source. The calls are words filed in the database; no cut-off is given here.

Experiments:
[1] = molecular target: Cyclin-dependent kinase 2/cyclin E1 (Homo sapiens, UniProt P24941); assay: Inhibition of recombinant human CDK2/cyclin E after 40 mins by ADP-Glo reagent based luminescence assay; type: protein-complex assay
[2] = test system: MDA-MB-468; assay: Induction of apoptosis in human MDA-MB-468 cells assessed as viable cells at 15 uM after 24 hrs by Annexin V-FITC/PI staining based flow cytometry (reference value: 91.43%); type: functional; conditions: MDA-MB-468, 24 h, read-out: Activity
[3] = test system: MDA-MB-468; assay: Induction of apoptosis in human MDA-MB-468 cells assessed as necrotic cells at 15 uM after 12 hrs by Annexin V-FITC/PI staining based flow cytometry (reference value: 0.34%); type: functional
[4] = test system: MDA-MB-468; assay: Growth inhibition of human MDA-MB-468 cells at 20 uM by MTT assay; type: functional, cell-based
[5] = test system: WM 266-4; assay: Growth inhibition of human WM266.4 cells at 20 uM by MTT assay; type: functional, cell-based
[6] = test system: MDA-MB-468; assay: Induction of apoptosis in human MDA-MB-468 cells assessed as late apoptotic cells at 15 uM after 24 hrs by Annexin V-FITC/PI staining based flow cytometry (reference value: 2.49%); type: functional
[7] = molecular target: Cyclin-dependent kinase 4/cyclin D1 (Homo sapiens, UniProt P11802); assay: Inhibition of recombinant human CDK4/cyclin D1 after 40 mins by ADP-Glo reagent based luminescence assay; type: protein-complex assay
Chain of Cyclin-dependent kinase 4/cyclin D1 (P11802 whole entry): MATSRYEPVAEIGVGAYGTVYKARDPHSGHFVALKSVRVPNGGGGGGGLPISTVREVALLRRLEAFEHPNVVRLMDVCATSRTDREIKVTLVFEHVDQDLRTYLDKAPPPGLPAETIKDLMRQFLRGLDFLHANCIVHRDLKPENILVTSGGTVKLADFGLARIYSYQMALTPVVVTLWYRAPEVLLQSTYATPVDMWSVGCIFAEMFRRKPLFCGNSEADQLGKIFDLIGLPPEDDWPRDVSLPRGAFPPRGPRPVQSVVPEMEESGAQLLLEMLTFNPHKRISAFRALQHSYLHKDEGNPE
Chain of Cyclin-dependent kinase 4/cyclin D1 (P24385 whole entry, further chain): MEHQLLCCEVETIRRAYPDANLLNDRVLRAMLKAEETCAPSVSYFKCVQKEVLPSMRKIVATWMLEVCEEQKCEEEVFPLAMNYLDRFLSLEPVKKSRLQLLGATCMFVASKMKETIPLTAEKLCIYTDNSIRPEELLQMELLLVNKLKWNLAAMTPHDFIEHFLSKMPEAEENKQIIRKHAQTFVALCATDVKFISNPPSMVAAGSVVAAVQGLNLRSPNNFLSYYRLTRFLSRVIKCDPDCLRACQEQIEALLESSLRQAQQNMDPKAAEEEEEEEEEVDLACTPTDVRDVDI

[8] = test system: MDA-MB-468; assay: Effect on bim level in human CDK2-siRNA MDA-MB-468 cells at 15 uM by Western blot analysis; type: functional, cell-based
[9] = molecular target: CDK7/Cyclin H/MNAT1 (Homo sapiens, UniProt P50613); assay: Inhibition of recombinant human CDK7/cyclin H/MNAT1 after 40 mins by ADP-Glo reagent based luminescence assay; type: protein-complex assay
Chain of CDK7/Cyclin H/MNAT1 (P51946 whole entry): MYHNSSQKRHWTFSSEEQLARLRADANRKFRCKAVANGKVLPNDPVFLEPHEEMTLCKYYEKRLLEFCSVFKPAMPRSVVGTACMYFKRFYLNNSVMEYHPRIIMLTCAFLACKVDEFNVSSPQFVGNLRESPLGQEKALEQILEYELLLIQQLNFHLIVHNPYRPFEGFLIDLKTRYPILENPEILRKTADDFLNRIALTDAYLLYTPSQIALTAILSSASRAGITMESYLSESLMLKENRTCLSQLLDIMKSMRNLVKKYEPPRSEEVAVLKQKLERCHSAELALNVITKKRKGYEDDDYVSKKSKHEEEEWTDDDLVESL
Chain of CDK7/Cyclin H/MNAT1 (P50613 whole entry): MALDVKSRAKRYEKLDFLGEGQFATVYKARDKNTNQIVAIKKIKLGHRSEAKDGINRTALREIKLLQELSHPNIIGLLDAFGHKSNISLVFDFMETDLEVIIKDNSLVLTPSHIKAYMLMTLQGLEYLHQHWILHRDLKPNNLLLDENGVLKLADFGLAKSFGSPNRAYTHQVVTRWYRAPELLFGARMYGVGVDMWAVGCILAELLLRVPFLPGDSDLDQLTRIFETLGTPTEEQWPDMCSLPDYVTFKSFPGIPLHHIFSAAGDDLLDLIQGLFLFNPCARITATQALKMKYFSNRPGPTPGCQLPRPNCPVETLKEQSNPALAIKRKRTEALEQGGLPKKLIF
Chain of CDK7/Cyclin H/MNAT1 (P51948 whole entry, further chain): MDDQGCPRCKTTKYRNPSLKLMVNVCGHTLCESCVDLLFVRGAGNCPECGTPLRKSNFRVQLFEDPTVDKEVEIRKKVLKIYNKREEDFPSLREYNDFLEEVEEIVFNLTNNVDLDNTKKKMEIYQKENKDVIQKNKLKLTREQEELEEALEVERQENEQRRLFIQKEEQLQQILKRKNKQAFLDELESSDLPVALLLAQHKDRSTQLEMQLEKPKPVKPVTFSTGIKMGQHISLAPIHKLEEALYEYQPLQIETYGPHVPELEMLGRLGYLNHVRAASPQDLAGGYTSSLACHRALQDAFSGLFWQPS

[10] = molecular target: Cyclin-dependent kinase 2 (Homo sapiens) (UniProt P24941); assay: Inhibition of CDK2 in human MDA-MB-468 cells assessed as decrease in caspase 3 expression level at 15 uM measured up to 36 hrs by Western blot analysis; type: cell-based
[11] = test system: MDA-MB-468; assay: Induction of apoptosis in human MDA-MB-468 cells assessed as late apoptotic cells at 15 uM after 12 hrs by Annexin V-FITC/PI staining based flow cytometry (reference value: 2.49%); type: functional
[12] = test system: MDA-MB-468; assay: Induction of apoptosis in human MDA-MB-468 cells assessed as viable cells at 15 uM after 6 hrs by Annexin V-FITC/PI staining based flow cytometry (reference value: 91.43%); type: functional; conditions: MDA-MB-468, 6 h, read-out: Activity
[13] = test system: MDA-MB-468; assay: Antiproliferative activity against human MDA-MB-468 cells after 72 hrs by MTT assay; type: functional, cell-based; conditions: MDA-MB-468, 72 h
[14] = test system: MDA-MB-468; assay: Cell cycle arrest in human MDA-MB-468 cells assessed as accumulation at S phase at 15 uM after 24 hrs by propidium iodide staining based flow cytometry (reference value: 39.46%); type: functional
[15] = molecular target: Cyclin-dependent kinase 2 (Homo sapiens) (UniProt P24941); assay: Inhibition of CDK2 in human MDA-MB-468 cells assessed as decrease in cyclin E phosphorylation at Thr62 residues at 15 uM after 12 to 26 hrs by Western blot analysis; type: cell-based
[16] = test system: MDA-MB-468; assay: Antiproliferative activity against human MDA-MB-468 cells after 48 hrs by MTT assay; type: functional, cell-based; conditions: MDA-MB-468, 48 h
[17] = test system: MDA-MB-468; assay: Cell cycle arrest in human MDA-MB-468 cells assessed as accumulation at G1 phase at 15 uM after 24 hrs by propidium iodide staining based flow cytometry (reference value: 46.38%); type: functional
[18] = test system: MDA-MB-468; assay: Induction of apoptosis in human MDA-MB-468 cells assessed as viable cells at 15 uM after 12 hrs by Annexin V-FITC/PI staining based flow cytometry (reference value: 91.43%); type: functional; conditions: MDA-MB-468, 12 h, read-out: Activity
[19] = test system: MDA-MB-468; assay: Induction of apoptosis in human MDA-MB-468 cells assessed as early apoptotic cells at 15 uM after 12 hrs by Annexin V-FITC/PI staining based flow cytometry (reference value: 5.74%); type: functional
[20] = molecular target: Cyclin-dependent kinase 2 (Homo sapiens) (UniProt P24941); assay: Inhibition of CDK2 in human MDA-MB-468 cells assessed as increase in bax expression level at 15 uM measured up to 36 hrs by Western blot analysis; type: cell-based
[21] = test system: MDA-MB-468; assay: Cell cycle arrest in human MDA-MB-468 cells assessed as accumulation at G2 phase at 15 uM after 24 hrs by propidium iodide staining based flow cytometry (reference value: 14.16%); type: functional
[22] = test system: MDA-MB-231; assay: Growth inhibition of human MDA-MB-231 cells at 20 uM by MTT assay; type: functional, cell-based
[23] = test system: MDA-MB-468; assay: Induction of apoptosis in human MDA-MB-468 cells assessed as early apoptotic cells at 15 uM after 24 hrs by Annexin V-FITC/PI staining based flow cytometry (reference value: 5.74%); type: functional
[24] = test system: 786-0; assay: Growth inhibition of human 786-O cells at 20 uM by MTT assay; type: functional, cell-based
[25] = test system: MDA-MB-468; assay: Induction of apoptosis in human MDA-MB-468 cells assessed as necrotic cells at 15 uM after 6 hrs by Annexin V-FITC/PI staining based flow cytometry (reference value: 0.34%); type: functional
[26] = molecular target: Cyclin-dependent kinase 2 (Homo sapiens) (UniProt P24941); assay: Inhibition of CDK2 in human MDA-MB-468 cells assessed as increase in cleaved PARP expression level at 15 uM measured up to 36 hrs by Western blot analysis; type: cell-based
[27] = test system: MDA-MB-468; assay: Induction of apoptosis in human MDA-MB-468 cells assessed as early apoptotic cells at 15 uM after 6 hrs by Annexin V-FITC/PI staining based flow cytometry (reference value: 5.74%); type: functional
[28] = molecular target: Cyclin-dependent kinase 2 (Homo sapiens) (UniProt P24941); assay: Inhibition of CDK2 in human MDA-MB-468 cells assessed as decrease in CDK2 phosphorylation at […] residues at 15 uM after 12 to 26 hrs by Western blot analysis; type: cell-based
[29] = test system: MDA-MB-468; assay: Induction of morphological changes in human MDA-MB-468 cells at 15 uM after 6 to 24 hrs by Hoechst 33258 staining based fluorescence microscopy; type: functional, cell-based
[30] = molecular target: Cyclin-dependent kinase 2 (Homo sapiens) (UniProt P24941); assay: Inhibition of CDK2 in human MDA-MB-468 cells assessed as increase in cleaved caspase 3 expression level at 15 uM measured up to 36 hrs by Western blot analysis; type: cell-based
[31] = test system: MCF7; assay: Growth inhibition of human MCF7 cells at 20 uM by MTT assay; type: functional, cell-based
[32] = test system: MDA-MB-468; assay: Induction of apoptosis in human MDA-MB-468 cells assessed as late apoptotic cells at 15 uM after 6 hrs by Annexin V-FITC/PI staining based flow cytometry (reference value: 2.49%); type: functional
[33] = test system: MDA-MB-468; assay: Antiproliferative activity against human MDA-MB-468 cells after 24 hrs by MTT assay; type: functional, cell-based; conditions: MDA-MB-468, 24 h
[34] = molecular target: Cyclin-dependent kinase 2 (Homo sapiens) (UniProt P24941); assay: Inhibition of CDK2 in human MDA-MB-468 cells assessed as increase in bim expression level at 15 uM measured up to 36 hrs by Western blot analysis; type: cell-based
[35] = test system: MDA-MB-468; assay: Effect on cyclin E level in human CDK2-siRNA MDA-MB-468 cells at 15 uM by Western blot analysis; type: functional, cell-based
[36] = molecular target: CDK6/cyclin D3 (Homo sapiens, UniProt Q00534); assay: Inhibition of recombinant human CDK6/cyclin D3 after 40 mins by ADP-Glo reagent based luminescence assay; type: protein-complex assay
Chain of CDK6/cyclin D3 (P30281 whole entry): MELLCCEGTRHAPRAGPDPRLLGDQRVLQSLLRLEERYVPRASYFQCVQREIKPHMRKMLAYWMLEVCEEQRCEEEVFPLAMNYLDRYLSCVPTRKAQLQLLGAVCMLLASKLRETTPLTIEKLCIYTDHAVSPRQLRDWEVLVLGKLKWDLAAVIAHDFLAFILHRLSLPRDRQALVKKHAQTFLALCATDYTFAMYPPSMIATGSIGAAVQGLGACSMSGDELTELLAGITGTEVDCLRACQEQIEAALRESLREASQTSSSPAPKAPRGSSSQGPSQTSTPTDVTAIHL
Chain of CDK6/cyclin D3 (Q00534 whole entry): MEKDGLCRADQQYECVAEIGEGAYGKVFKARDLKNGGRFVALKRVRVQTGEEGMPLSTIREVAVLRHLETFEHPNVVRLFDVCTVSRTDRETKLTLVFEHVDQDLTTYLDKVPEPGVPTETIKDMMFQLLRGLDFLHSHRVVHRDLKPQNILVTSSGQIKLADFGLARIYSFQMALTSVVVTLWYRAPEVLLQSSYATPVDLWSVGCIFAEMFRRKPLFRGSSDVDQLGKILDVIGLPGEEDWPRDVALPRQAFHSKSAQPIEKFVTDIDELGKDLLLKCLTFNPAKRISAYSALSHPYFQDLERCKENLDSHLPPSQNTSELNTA

[37] = test system: MDA-MB-468; assay: Induction of apoptosis in human MDA-MB-468 cells assessed as necrotic cells at 15 uM after 24 hrs by Annexin V-FITC/PI staining based flow cytometry (reference value: 0.34%); type: functional
[38] = test system: HepG2; assay: Growth inhibition of human HepG2 cells at 20 uM by MTT assay; type: functional, cell-based

IC50 [1]: 276 nM
Structure (SMILES): Cc1ccc(C(=O)NC2CCN(c3nccc(Nc4ccc(F)cc4)n3)CC2)cc1

IC50 [1]: 378 nM
Structure (SMILES): COc1ccc(Nc2ccnc(N3CCC(NC(=O)c4ccc(C)cc4)CC3)n2)cc1

IC50 [1]: 241 nM
Structure (SMILES): O=C(NC1CCN(c2nccc(Nc3ccc(F)cc3)n2)CC1)c1ccccc1F

IC50 [1]: 151 nM
Structure (SMILES): O=C(NC1CCN(c2nccc(Nc3ccc(F)cc3)n2)CC1)c1ccc(F)cc1

IC50 [1]: 54.2 nM
Structure (SMILES): COc1ccc(C(=O)NC2CCN(c3nc(C)cc(Nc4ccc(F)cc4)n3)CC2)cc1

IC50 [1]: 313 nM
Structure (SMILES): COc1ccc(Nc2ccnc(N3CCC(NC(=O)c4cccc(Cl)c4)CC3)n2)cc1

IC50 [1]: 474 nM
Structure (SMILES): COc1ccc(Nc2ccnc(N3CCC(NC(=O)c4cccc(C)c4)CC3)n2)cc1

IC50 [1]: 459 nM
Structure (SMILES): Cc1ccccc1Nc1ccnc(N2CCC(NC(=O)c3ccc(F)cc3)CC2)n1

IC50 [1]: 380 nM
Structure (SMILES): Cc1cccc(C(=O)NC2CCN(c3nc(C)cc(Nc4ccc(F)cc4)n3)CC2)c1

IC50 [1]: 501 nM
Structure (SMILES): Cc1ccccc1Nc1ccnc(N2CCC(NC(=O)c3cccc(Cl)c3)CC2)n1

IC50 [1]: 276 nM
Structure (SMILES): COc1ccc(Nc2ccnc(N3CCC(NC(=O)c4ccc(OC)cc4)CC3)n2)cc1

IC50 [1]: 399 nM
Structure (SMILES): Cc1ccccc1Nc1ccnc(N2CCC(NC(=O)c3ccccc3F)CC2)n1

IC50 [1]: 286 nM
Structure (SMILES): COc1ccc(C(=O)NC2CCN(c3nccc(Nc4ccccc4C)n3)CC2)cc1

IC50 [1]: 288 nM
Structure (SMILES): Cc1cccc(C(=O)NC2CCN(c3nccc(Nc4ccccc4C)n3)CC2)c1

IC50 [1]: 206 nM
Structure (SMILES): O=C(NC1CCN(c2nccc(Nc3ccc(F)cc3)n2)CC1)c1cccc(Cl)c1

IC50 [1]: 287 nM
Structure (SMILES): Cc1cc(Nc2ccc(F)cc2)nc(N2CCC(NC(=O)c3cccc(Cl)c3)CC2)n1

IC50 [1]: 386 nM
Structure (SMILES): Cc1cccc(C(=O)NC2CCN(c3nccc(Nc4ccc(F)cc4)n3)CC2)c1

IC50 [1]: 288 nM
Structure (SMILES): Cc1ccc(C(=O)NC2CCN(c3nc(C)cc(Nc4ccc(F)cc4)n3)CC2)cc1

IC50 [7]: 278 nM | IC50 [9]: 89.8 nM | inhibition [10]: Active | IC50 [13]: 5740 nM | inhibition [15]: Active | IC50 [16]: 8960 nM | IC50 [1]: 45.8 to 54.3 nM | inhibition [20]: Active | inhibition [26]: Active | inhibition [28]: Active | inhibition [30]: Active | IC50 [33]: 14300 nM | inhibition [34]: Active | IC50 [36]: 54.3 to 73.7 nM
Structure (SMILES): COc1ccc(C(=O)NC2CCN(c3nccc(Nc4ccc(F)cc4)n3)CC2)cc1
viability at 15 µM [2]: 65.8% | Activity [3]: 2.73% | growth inhibition (GI) [4]: Active | growth inhibition (GI) [5]: Active | Activity [6]: 24.68% | Activity [8]: inactive | Activity [11]: 16.82% | viability at 15 µM [12]: 89.2% | Activity [14]: 25.25% | Activity [17]: 65.11% | viability at 15 µM [18]: 76.6% | Activity [19]: 3.82% | Activity [21]: 9.64% | growth inhibition (GI) [22]: Active | Activity [23]: 6.02% | growth inhibition (GI) [24]: Active | Activity [25]: 0.87% | Activity [27]: 4.62% | Activity [29]: Active | growth inhibition (GI) [31]: Active | Activity [32]: 5.28% | Activity [35]: inactive | Activity [37]: 3.46% | growth inhibition (GI) [38]: Active

IC50 [1]: 153 nM
Structure (SMILES): Cc1cc(Nc2ccc(F)cc2)nc(N2CCC(NC(=O)c3ccc(F)cc3)CC2)n1

IC50 [1]: 280 nM
Structure (SMILES): COc1ccc(Nc2ccnc(N3CCC(NC(=O)c4ccccc4F)CC3)n2)cc1

IC50 [1]: 567 nM
Structure (SMILES): Cc1ccc(C(=O)NC2CCN(c3nccc(Nc4ccccc4C)n3)CC2)cc1

IC50 [1]: 205 nM
Structure (SMILES): Cc1cc(Nc2ccc(F)cc2)nc(N2CCC(NC(=O)c3ccccc3F)CC2)n1

IC50 [1]: 405 nM
Structure (SMILES): COc1ccc(Nc2ccnc(N3CCC(NC(=O)c4ccc(F)cc4)CC3)n2)cc1
